Values joined by “and” are separate entries in the source; they are usually repeats but may differ in a detail not shown here. Equal values may be shown once.
Assays:
[1] = Human pharmacokinetics predicted from preclinical data; details: in humans, based on preclinical data
[2] = tested on: locally advanced or metastatic selected solid tumors (ER+HER2− breast cancer, CRPC, or NSCLC); test: Phase 1 clinical trial: clinical efficacy (tumor response); assay type: in vivo, human; details: for confirmed and durable partial responses (PR): ER+/HER2− breast cancer; for confirmed and durable partial responses, response-evaluable pts with ER+/HER2− mBC: progressed on prior ET+CDK4/6 inhibitor
Excerpt: The patients in this trial are intolerant of or resistant to standard therapy.
Study Design: The overall study design is depicted in FIG. 1. The study contains two parts, a dose escalation (Part 1) followed by a dose expansion (Part 2). Not shown in FIG. 1 are Part 1D and Part 2D, which are additional arms in Part 1 and Part 2 in the study design and are described below.
Part 1A (Monotherapy Dose Escalation) contains dose escalation as monotherapy in patients with locally advanced or metastatic ER+HER2− breast cancer, CRPC, or NSCLC that is resistant or intolerant to standard therapy or for whom no standard therapy is available, to determine the maximum tolerated dose (MTD) and select the RDE. […] A 2-parameter Bayesian Logistic Regression Model (BLRM) was used for dose finding.
Part 1B (Combination Dose Escalation), COMPOUND A in combination with fulvestrant was evaluated for dose finding in patients with locally advanced or metastatic ER+HER2− breast cancer (2L+) who progressed after at least one line of treatment with an endocrine therapy and a CDK4/6 inhibitor to determine the MTD and RDE for this combination. Combination RDE may be different from monotherapy RDE due to potential toxicity overlap. A 5-parameter BLRM was used for dose finding.

[3] = Parts 1A + 1B, of the 10 with SD

Question: Which “predicted Vss” value [1] does the source give for COc1ccccc1S(=O)(=O)Nc1noc2cc(Cn3cccn3)cc(OC)c12 [COMPOUND A, 2-Methoxy-N-{4-methoxy-6-[(1H-pyrazol-1-yl)methyl]-1,2-benzoxazol-3-yl}benzene-1-sulfonamide] here?
Answer: ~0.1 L/kg

Question: What about the predicted oral bioavailability [1] of the same molecule?
Answer: high oral bioavailability

Question: And the “predicted plasma CL” value [1]?
Answer: ~6 mL/h/kg

Question: And the predicted t [1]?
Answer: approximately 12 h

Question: What about the “Duration of response (DOR)” value ([2]; 1 patient in Part 1A) of the same molecule?
Answer: 19.4 months

Question: And the “Duration of response (DOR)” value ([2]; 2 patients in Part 1B (one value per patient))?
Answer: 8.1 months and 10 months

Question: What about the clinical efficacy ([2]; 31 participants treated, cut-off 23 Mar. 2022) of the same molecule?
Answer: early signs of clinical efficacy

Question: What about the “confirmed and durable partial responses (PR)” value ([2]; Part 1A (8 mg monotherapy)) of the same molecule?
Answer: 1 patients

Question: And the “confirmed and durable partial responses, response-evaluable pts with ER+/HER2− mBC” value ([2]; Part 1A (monotherapy))?
Answer: ⅛

Question: And the “confirmed and durable partial responses, response-evaluable pts with ER+/HER2− mBC” value ([2]; Part 1B (5 mg QD + fulvestrant))?
Answer: 2/4

Question: And the “confirmed and durable partial responses (PR)” value ([2]; Part 1B (5 mg QD/fulvestrant 500 mg))?
Answer: 2 patients

Question: And the “Stable disease (SD), patients with CRPC” value [2, 3]?
Answer: 4

Question: And the “Stable disease (SD), patients with ER+/HER2− breast cancer” value [2, 3]?
Answer: 5

Question: And the “Stable disease (SD), patients with NSCLC” value [2, 3]?
Answer: 1

Question: What about the “confirmed and durable partial responses (PR)” value ([2]; among response-evaluable patients (n=22)) of the same molecule?
Answer: 3 patients

Question: What about the “clinical responses in heavily treated patients with ER+HER2− breast cancer” value ([2]; as of 30 Sep. 2022) of the same molecule?
Answer: confirmed and durable clinical responses were observed

Question: What about the “patients with SD lasting ≥6 months” value ([2]; as of 30 Sep. 2022) of the same molecule?
Answer: Three

Question: What about the “efficacy in ER+HER2− breast cancer patients” value ([2]; during dose escalation, as of 23 Mar. 2022) of the same molecule?
Answer: signs of efficacy

Question: What about the “duration of SD” value ([2]; patient with CRPC, 5 mg QD) of the same molecule?
Answer: 9.1 months

Question: And the “duration of SD” value ([2]; patient with CRPC, 15 mg QD)?
Answer: 11.3 months

Question: What about the “duration of SD” value ([2]; patient with ER+/HER2− breast cancer, 8 mg QD) of the same molecule?
Answer: 7.5 months
